12 molecules from ChEMBL document CHEMBL5465560, “Selectivity Literature for EUbOPEN Chemogenomic Library” (2024) can be followed below.

One experiment addresses Activated CDC42 kinase 1 (Homo sapiens, UniProt Q07912). As to the kind of experiment: Selectivity interaction (LanthaScreen Eu Kinase Binding Assay) EUB0001632a TNK2. The conditions noted are these: at 10 µM. For orientation: TR-FRET usually uses a lanthanide donor and a delayed reading to cut background.
Experiment [1] has as its target T1, Serine/threonine-protein kinase D1 (Homo sapiens) (UniProt Q15139).
T1 sequence (whole entry): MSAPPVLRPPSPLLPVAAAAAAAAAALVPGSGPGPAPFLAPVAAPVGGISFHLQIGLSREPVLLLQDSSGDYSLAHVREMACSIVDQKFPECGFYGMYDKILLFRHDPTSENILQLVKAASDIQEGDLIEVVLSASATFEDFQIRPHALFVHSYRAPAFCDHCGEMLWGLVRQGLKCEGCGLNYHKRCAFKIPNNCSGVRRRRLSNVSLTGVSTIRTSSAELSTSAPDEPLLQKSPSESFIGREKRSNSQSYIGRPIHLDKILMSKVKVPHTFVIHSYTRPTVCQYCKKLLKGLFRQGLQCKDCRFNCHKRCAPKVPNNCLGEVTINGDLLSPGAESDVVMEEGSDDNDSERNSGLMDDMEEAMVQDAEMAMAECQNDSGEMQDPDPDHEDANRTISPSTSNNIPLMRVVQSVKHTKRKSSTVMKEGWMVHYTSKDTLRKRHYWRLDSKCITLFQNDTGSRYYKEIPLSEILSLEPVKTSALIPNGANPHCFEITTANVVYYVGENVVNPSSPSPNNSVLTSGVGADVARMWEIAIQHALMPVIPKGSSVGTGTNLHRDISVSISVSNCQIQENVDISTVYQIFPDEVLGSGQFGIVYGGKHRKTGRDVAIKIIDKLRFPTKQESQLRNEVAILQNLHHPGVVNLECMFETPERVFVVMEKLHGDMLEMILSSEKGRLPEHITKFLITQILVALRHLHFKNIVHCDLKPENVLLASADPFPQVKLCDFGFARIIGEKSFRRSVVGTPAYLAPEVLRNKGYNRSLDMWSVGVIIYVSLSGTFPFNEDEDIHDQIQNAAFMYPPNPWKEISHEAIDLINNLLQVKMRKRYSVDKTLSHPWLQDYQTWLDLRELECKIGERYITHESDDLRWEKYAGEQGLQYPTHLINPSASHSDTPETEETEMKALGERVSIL
The following applies: at 10 µM.

The target in experiment [2] is Protein arginine N-methyltransferase 3 (Homo sapiens, UniProt O60678). The following applies: at 1 µM.
Experiment [3] has as its target Epidermal growth factor receptor (Homo sapiens, UniProt P00533). As to the kind of experiment: Selectivity interaction (Enyzmatic assay) EUB0000601a EGFR.
Experiment [4] deals with T2, Platelet-derived growth factor receptor alpha (Homo sapiens, UniProt P16234). Kind of experiment: Selectivity interaction (KinomeScan (DiscoverX)) EUB0001619a PDGFRA. The following applies: at 1 µM.
T2 sequence (P16234 whole entry): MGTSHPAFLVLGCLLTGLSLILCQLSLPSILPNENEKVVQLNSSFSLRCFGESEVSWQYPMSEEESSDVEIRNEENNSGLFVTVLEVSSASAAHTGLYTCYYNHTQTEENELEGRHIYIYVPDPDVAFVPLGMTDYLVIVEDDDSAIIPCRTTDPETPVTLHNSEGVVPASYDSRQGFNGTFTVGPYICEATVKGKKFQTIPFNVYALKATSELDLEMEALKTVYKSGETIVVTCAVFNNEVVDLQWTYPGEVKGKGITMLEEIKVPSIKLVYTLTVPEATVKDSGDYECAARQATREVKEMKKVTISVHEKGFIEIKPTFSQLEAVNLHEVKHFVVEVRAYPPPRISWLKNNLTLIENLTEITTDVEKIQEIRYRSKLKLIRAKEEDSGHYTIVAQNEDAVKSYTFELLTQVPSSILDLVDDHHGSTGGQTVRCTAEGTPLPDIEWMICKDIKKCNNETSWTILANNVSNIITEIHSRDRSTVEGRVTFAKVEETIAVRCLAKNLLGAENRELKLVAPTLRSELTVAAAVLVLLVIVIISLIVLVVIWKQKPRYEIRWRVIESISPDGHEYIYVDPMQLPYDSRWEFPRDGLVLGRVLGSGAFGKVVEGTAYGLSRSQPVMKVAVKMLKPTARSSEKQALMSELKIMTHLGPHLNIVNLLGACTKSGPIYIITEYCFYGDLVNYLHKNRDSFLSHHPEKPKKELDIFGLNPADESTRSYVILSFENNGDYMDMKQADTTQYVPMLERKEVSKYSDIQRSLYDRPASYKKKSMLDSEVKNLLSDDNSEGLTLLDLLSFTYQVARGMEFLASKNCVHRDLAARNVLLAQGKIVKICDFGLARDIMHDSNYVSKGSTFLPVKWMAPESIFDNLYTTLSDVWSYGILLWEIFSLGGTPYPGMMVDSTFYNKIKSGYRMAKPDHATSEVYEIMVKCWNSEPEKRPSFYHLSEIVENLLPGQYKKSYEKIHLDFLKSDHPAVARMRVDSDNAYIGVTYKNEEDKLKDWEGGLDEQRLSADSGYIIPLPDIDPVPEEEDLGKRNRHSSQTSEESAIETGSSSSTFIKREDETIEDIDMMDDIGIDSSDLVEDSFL
In experiment [5] the target is Serine/threonine-protein kinase 38 (Homo sapiens) (UniProt Q15208). Kind of experiment: Selectivity interaction (ActivX KiNativ screen (ex vivo kinase selectivity in human PBMCs)) EUB0001619a STK38. In kind it is cell-based. The following applies: PBMC, at 1 µM.
In experiment [6] the target is T3, Inhibitor of nuclear factor kappa-B kinase subunit epsilon (Homo sapiens) (UniProt Q14164).
T3 sequence (whole entry): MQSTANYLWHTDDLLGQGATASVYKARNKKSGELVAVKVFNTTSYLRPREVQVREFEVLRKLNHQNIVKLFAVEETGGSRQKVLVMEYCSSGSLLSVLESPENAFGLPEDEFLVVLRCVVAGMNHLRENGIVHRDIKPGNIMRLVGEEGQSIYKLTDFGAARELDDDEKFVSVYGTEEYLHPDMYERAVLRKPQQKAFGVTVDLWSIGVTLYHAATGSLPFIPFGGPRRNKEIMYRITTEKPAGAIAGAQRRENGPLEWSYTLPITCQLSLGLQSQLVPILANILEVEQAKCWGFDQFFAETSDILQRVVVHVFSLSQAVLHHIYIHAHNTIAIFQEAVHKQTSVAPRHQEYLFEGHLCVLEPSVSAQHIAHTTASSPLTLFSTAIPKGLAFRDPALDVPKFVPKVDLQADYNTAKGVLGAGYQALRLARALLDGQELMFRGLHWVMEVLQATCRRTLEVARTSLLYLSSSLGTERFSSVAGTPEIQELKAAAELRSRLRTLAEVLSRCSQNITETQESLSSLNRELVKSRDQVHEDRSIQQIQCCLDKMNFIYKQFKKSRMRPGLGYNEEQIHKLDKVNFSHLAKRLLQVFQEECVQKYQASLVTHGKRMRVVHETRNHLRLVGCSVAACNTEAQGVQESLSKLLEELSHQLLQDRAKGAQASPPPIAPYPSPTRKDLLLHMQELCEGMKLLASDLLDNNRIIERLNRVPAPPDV
Kind of experiment: Selectivity interaction (ActivX KiNativ screen (kinase selectivity in THP-1 cell lysates)) EUB0000639a IKBKE. The experiment is classed as subcellular. The conditions noted are these: lysate, at 0.01 µM.

Experiment [7] concerns the target Serine/threonine-protein kinase MARK2 (Homo sapiens) (UniProt Q7KZI7). Kind of experiment: Selectivity interaction (ActivX KiNativ screen (kinase selectivity in THP-1 cell lysates)) EUB0000639a MARK2. The experiment is classed as subcellular. The conditions noted are these: lysate, at 0.04 µM.
Experiment [8] addresses Serine/threonine-protein kinase/endoribonuclease IRE1 (Homo sapiens) (UniProt O75460). Kind of experiment: Selectivity interaction (ActivX KiNativ screen (kinase selectivity in THP-1 cell lysates)) EUB0000639a ERN1. The conditions noted are these: lysate. In kind it is subcellular.
Experiment [9] has as its target Ribosomal protein S6 kinase alpha-3 (Homo sapiens, UniProt P51812). As to the kind of experiment: Selectivity interaction (ActivX KiNativ screen (kinase selectivity in THP-1 cell lysates)) EUB0000639a RPS6KA3. In kind it is subcellular. The following applies: lysate, at 0.2 µM.
The target of experiment [10] is Death-associated protein kinase 1 (Homo sapiens, UniProt P53355). Kind of experiment: Selectivity interaction (Kinase screening (Nanosyn)) EUB0000604a DAPK1.
Experiment [11] concerns the target Receptor tyrosine-protein kinase erbB-2 (Homo sapiens, UniProt P04626). As to the kind of experiment: Selectivity interaction (KinomeScan (DiscoverX)) EUB0001049a ERBB2. The conditions noted are these: at 1 µM.
Experiment [12] concerns the target Serine/threonine-protein kinase Nek7 (Homo sapiens) (UniProt Q8TDX7). Kind of experiment: Selectivity interaction (ProQinase) EUB0000171b NEK7.
In experiment [13] the target is Glycogen synthase kinase-3 alpha (Homo sapiens, UniProt P49840). Kind of experiment: Selectivity interaction (KinomeScan (DiscoverX)) EUB0000092b GSK3A. The following applies: at 10 µM.
For experiment [14], the target named is T2, Platelet-derived growth factor receptor alpha. Kind of experiment: Selectivity interaction (KinomeScan (DiscoverX)) EUB0000045b PDGFRA.
For experiment [15], the target named is Platelet-derived growth factor receptor beta (Homo sapiens, UniProt P09619). Kind of experiment: Selectivity interaction (KinomeScan (DiscoverX)) EUB0000045b PDGFRB.
Sequence of Platelet-derived growth factor receptor beta (P09619 whole entry): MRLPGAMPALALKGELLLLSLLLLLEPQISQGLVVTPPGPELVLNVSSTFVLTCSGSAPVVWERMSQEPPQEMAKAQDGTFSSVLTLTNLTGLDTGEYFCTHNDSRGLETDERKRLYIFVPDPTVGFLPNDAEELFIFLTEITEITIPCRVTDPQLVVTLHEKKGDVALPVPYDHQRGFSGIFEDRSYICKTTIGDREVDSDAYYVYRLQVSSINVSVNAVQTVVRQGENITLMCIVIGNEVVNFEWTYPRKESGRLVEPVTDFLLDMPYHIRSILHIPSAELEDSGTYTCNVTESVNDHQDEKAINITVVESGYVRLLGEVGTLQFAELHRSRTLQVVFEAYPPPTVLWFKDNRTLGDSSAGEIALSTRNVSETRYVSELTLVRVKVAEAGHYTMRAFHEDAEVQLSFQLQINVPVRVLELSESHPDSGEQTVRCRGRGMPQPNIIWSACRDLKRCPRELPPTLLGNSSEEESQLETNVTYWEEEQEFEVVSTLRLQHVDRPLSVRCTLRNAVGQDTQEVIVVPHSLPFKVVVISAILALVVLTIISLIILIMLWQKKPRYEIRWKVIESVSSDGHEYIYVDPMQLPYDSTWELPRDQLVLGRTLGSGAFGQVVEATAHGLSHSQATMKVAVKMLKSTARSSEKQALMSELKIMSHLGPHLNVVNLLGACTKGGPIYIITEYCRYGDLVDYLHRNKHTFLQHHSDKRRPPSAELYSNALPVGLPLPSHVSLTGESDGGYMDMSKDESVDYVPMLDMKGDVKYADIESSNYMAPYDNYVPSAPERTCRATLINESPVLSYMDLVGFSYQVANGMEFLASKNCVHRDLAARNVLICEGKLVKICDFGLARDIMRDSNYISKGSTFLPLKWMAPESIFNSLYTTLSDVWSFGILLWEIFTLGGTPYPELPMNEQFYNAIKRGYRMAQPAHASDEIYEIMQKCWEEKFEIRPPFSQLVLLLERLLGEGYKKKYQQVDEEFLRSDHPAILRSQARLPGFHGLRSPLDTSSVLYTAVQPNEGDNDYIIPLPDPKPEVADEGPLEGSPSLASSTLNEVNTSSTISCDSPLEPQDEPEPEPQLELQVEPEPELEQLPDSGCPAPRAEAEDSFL
Experiment [16] concerns the target Wee1-like protein kinase 2 (Homo sapiens) (UniProt P0C1S8). As to the kind of experiment: Selectivity interaction (KinomeScan (DiscoverX)) EUB0000618a WEE2. The following applies: at 10 µM.

Sequence of Serine/threonine-protein kinase/endoribonuclease IRE1 (Homo sapiens) (O75460 19-977 limits assumed): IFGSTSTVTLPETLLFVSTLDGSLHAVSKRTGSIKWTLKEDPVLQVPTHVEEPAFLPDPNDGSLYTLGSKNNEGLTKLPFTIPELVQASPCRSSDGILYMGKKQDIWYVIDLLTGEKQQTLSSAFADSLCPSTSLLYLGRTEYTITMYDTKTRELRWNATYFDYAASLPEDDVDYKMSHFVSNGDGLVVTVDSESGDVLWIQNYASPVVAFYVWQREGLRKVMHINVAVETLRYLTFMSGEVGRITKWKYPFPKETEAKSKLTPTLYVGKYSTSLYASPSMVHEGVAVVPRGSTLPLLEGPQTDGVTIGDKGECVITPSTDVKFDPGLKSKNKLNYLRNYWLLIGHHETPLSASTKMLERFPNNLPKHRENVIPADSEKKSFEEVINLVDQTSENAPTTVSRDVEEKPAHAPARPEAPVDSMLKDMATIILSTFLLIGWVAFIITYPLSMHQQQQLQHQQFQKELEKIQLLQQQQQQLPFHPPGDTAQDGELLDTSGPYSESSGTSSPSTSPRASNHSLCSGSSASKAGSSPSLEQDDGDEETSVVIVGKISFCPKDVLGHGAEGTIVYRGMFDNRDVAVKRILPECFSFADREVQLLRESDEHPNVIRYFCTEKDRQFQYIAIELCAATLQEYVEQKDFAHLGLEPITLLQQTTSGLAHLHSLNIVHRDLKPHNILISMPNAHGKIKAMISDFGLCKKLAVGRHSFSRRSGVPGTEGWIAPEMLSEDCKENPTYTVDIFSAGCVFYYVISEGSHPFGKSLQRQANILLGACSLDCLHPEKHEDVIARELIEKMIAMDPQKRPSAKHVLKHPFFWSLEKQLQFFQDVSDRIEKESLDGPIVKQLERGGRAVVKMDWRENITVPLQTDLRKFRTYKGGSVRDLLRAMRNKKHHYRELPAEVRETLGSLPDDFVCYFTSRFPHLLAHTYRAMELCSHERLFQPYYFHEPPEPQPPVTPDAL
Sequence of Serine/threonine-protein kinase Nek7 (Homo sapiens) (Q8TDX7 whole entry, looked up): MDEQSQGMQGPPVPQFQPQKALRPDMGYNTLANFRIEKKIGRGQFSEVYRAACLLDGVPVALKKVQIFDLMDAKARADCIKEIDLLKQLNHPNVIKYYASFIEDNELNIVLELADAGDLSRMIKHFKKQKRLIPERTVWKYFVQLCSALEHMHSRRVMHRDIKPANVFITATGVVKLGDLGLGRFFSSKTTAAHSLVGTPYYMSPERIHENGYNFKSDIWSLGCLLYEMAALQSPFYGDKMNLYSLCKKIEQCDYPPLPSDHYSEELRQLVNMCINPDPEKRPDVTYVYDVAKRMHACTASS
Sequence of Receptor tyrosine-protein kinase erbB-2 (P04626 whole entry): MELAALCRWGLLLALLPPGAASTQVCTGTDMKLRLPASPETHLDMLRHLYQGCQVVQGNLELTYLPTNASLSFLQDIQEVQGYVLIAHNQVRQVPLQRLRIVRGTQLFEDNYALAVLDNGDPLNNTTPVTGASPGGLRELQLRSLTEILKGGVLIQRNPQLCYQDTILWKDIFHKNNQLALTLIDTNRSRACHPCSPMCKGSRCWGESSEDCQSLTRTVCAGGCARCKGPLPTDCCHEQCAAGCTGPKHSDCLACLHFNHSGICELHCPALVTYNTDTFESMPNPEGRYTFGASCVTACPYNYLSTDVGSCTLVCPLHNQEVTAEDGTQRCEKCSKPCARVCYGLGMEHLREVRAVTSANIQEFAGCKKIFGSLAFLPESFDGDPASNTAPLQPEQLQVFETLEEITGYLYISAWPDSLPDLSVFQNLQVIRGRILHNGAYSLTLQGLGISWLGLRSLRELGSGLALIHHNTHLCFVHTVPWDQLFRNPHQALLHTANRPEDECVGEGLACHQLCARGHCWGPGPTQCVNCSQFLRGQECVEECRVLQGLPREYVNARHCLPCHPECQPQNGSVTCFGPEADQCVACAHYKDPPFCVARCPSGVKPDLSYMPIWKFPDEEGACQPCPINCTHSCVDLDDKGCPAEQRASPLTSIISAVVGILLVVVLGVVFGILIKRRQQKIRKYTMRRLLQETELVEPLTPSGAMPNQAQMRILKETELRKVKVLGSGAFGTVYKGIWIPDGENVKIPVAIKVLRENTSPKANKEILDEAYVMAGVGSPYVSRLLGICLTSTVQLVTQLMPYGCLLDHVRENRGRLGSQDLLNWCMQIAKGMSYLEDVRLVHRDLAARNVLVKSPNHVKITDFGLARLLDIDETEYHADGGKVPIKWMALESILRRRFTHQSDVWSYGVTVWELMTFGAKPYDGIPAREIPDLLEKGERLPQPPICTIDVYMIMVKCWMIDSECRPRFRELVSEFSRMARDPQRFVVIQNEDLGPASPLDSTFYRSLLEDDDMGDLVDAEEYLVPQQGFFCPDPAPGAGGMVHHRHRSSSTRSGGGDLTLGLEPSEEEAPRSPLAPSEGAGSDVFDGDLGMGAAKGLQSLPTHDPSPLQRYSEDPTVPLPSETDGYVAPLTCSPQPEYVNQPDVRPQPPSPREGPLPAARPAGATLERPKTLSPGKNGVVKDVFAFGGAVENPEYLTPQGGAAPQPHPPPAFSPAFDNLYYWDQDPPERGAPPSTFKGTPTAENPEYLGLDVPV

Turning to `Cn1cc(-n2cnc3c(NCc4nc5cc(Cl)c(Cl)cc5[nH]4)nc(N4CCOCC4)nc32)cn1`, the % of inhibition on Activated CDC42 kinase 1 is -5.62%.

In [1], `Cc1cc([C@@H](C)Nc2ccccc2C(=O)O)c2nc(N3CCOCC3)cc(=O)n2c1` [AZD-6482] registered a % of control of 89%.

Turning to `CNCCN1CCC(c2cc(CN(C)C(=O)c3cccc(Oc4ccccc4)c3)ccn2)CC1`, the % activity in experiment [2] is > 90%.

As usually defined, the IC50 is the midpoint of a concentration-inhibition curve. For the molecule `CCc1cc(Nc2nccc(-c3c(-c4ccc(OC)c(C(=O)Nc5c(F)cccc5F)c4)nc4ccccn34)n2)c(OC)cc1N1CCC(N2CCN(S(C)(=O)=O)CC2)CC1`, the 50% inhibitory concentration (IC50) in [3] was > 10 µM.

Turning to `N#Cc1cccc(-c2c[nH]c3ncnc(N4CCOCC4)c23)c1`, the % of control in [4] was determined as 100%. Moreover, the % of inhibition in [5] was determined as 2%.

On to `CC[C@@H]1[C@H](F)C(=O)N[C@@H]1COc1nccc2cc(C(N)=O)c(OC)cc12` [ZIMLOVISERTIB], for which the % of inhibition in experiment [6] is -51.9%; in experiment [7], 0.7%; in experiment [8] (at 0.01 µM), -5.9%; in experiment [8] (at 0.04 µM), -16.2%; in [8] (at 0.2 µM), -1.2%; in [8] (at 1 µM), -2.9%. For the same molecule, the values for the % of inhibition in experiment [8] (at 5 µM) and in [9] were -24% and 0%, respectively.

On to `Cc1cnc(Nc2ccc(F)cc2Cl)nc1-c1c[nH]c(C(=O)N[C@H](CO)c2cccc(Cl)c2)c1`, for which, in experiment [10], the % of inhibition came out at 2%.

`COc1cc(Nc2nc(C)cc(-c3cnn4nc(OC)ccc34)n2)cc(C(F)(F)F)c1`: the % of control in experiment [11] came out at 100%.

`C=CC(=O)Nc1cccc(C(=O)Nc2ccc(Nc3cc(-c4[nH]c(SC)nc4C)ccn3)cc2)c1`: the values for the % of control in experiment [12] (at 1 µM) and in experiment [12] (at 5 µM) were 91% and 95%, respectively.

In turn, `CCC(=O)N1CCN(c2ccc(-n3c(=O)ccc4cnc5ccc(-c6cnc7ccccc7c6)cc5c43)cc2C(F)(F)F)CC1` displayed a % of control in experiment [13] of 93%.

`C=CC(=O)Nc1cc(-n2c(=O)ccc3cnc4ccc(-c5ccc(NS(C)(=O)=O)cc5)cc4c32)ccc1C`: the % of control in [14] (at 1 µM) was 92%; in experiment [14] (at 10 µM) it was 100%; in experiment [15] (at 1 µM), 76%; in [15] (at 10 µM), 63%.

In turn, `O[C@H]1CC[C@H](Nc2ncc3nc(Nc4c(F)cc(F)cc4F)n([C@H]4CCOC4)c3n2)CC1` had a % of control in experiment [16] of 98%.
